Target: T1, P2X3 (Homo sapiens, UniProt P56373)
T1 construct: expressed in transfected cells; host or cells: HEK293
T1 sequence (P56373 1-397): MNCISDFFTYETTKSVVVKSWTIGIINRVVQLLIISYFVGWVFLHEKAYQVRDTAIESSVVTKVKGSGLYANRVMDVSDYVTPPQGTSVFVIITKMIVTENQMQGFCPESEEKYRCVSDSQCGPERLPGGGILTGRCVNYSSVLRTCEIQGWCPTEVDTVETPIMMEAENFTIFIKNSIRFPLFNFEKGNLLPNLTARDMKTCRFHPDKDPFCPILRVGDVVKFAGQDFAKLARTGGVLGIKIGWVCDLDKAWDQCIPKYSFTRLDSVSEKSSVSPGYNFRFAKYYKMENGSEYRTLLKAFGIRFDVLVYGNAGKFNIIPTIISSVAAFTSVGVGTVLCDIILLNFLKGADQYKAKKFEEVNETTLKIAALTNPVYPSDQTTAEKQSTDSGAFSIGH
Assay: P2X3 Antagonist Assay (FLIPR calcium, Fluo-8, HEK293 cells transfected with human ion channel cDNAs, αβ-meATP stimulation)
Type: cell-based
Settings: @ 1 μM, antagonist mode, αβ-meATP 3 μM
Method: Example 59: P2X3 Antagonist Assay
HEK293 were transiently or stably transfected with human ion channel cDNAs as indicated in section 1. Stable transfectants were selected by coexpression with the antibiotic-resistance gene(s) incorporated into the expression plasmid(s). Selection pressure was maintained by including selection antibiotics in the culture medium. HEK293 cells were cultured in Dulbecco's Modified Eagle Medium/Nutrient Mixture F-12 (D-MEM/F-12) supplemented with 10% fetal bovine serum, 100 U/mL penicillin G sodium, 100 J·Lg/mL streptomycin sulfate and appropriate selection antibiotics.
The effect of each test article to act as an antagonist was evaluated. Each test article was evaluated at eight (8) concentrations (0.001, 0.003, 0.01, 0.03, 0.1, 0.3, 1 and 3 μM, n=3) with 4 replicates for each concentration. Experiments were performed with the FLIPR calcium sensitive dye kit (Fluo-8 dye, AAT, Bioquest) according to the manufacturer's instructions. • Dye-loading: Growth media will be removed and add 20 μL of Mg^++-free HBPS containing Fluo-8 for 30 min at 37° C. • Preincubation (FLIPR step 1): Adding 5× (5 μL) test, vehicle, or control article solutions in Mg^+-free HBPS to each well for 20 minutes at room temperature, protected from light. • Stimulation (FLIPR step 2): After pre-incubation, cells will be stimulated with 6× (5 μL) αβ-meATP at final concentration of 3 μM prepared in Mg^++-free HBPS. • Non-Specific Calcium Influx (FLIPR step 3): 5 minutes after stimulation solution addition, non-specific calcium influx will be activated by adding 7×(5 μL) ionomycin at a final concentration of 5 μM. Fluorescence will be recorded continuously during FLIPR steps 2 and 3. • Positive Control Antagonist: PPADS (1 mM).
Data acquisition was performed via the FLIPRControl software that is supplied with the FLIPR System (MDS-AT) and data was analyzed using Microsoft Excel2003 (Microsoft Corp., Redmond, WA).

P2X3 IC50 column, given as % @ 1 μM [% @ 1 μM]	SMILES
23	CNC(=O)c1cc(F)c(-c2nc3cc(C)ccn3c2CC2COCCN(C(=O)OC)C2)c(F)c1 (single isomer, unassigned) [A16 (Peak 2), methyl 6-((2-(2,6-difluoro-4-(methylcarbamoyl)phenyl)-7-meth-ylimidazo[1,2-a]pyridin-3-yl)methyl)-1,4-oxazepane-4-carboxylate]
21	CNC(=O)c1cc(F)c(-c2nc3cc(C)ccn3c2CC2CCCCN(C(=O)OC)C2)c(F)c1 (single isomer, unassigned) [A17 (Peak 2), methyl 3-((2-(2,6-difluoro-4-(methylcarbamoyl)phenyl)-7-methylimidazo[1,2-a]pyridin-3-yl)methyl)azepane-1-carboxylate]
17	CNC(=O)c1cc(F)c(-c2nc3cc(C)ccn3c2CC2CCCC(NC(C)=O)C2)c(F)c1 (single isomer, unassigned) [trans-A22 (Peak 2), 4-(3-((3-acetamidocyclohexyl)methyl)-7-methylimidazo[1,2-a]pyridin-2-yl)-3,5-difluoro-N-methylbenzamide]

Same assay, conditions: @ 1 μM, antagonist mode, αβ-meATP 3 μM, read-out: P2X3 IC50 column, given as % @ 1 μM

SMILES	inhibition at 1 µM [%]
CNC(=O)c1ccc(-c2nc3cc([S+](C)[O-])ccn3c2C[C@H]2CN(C(=O)OC)CCO2)c(F)c1 (single isomer, unassigned) [A47 (Peak 1)]	5

Same assay, conditions: HEK293, @ 1 μM, antagonist mode, αβ-meATP 3 μM, read-out: P2X3 IC50 column, given as % @ 1 μM

inhibition at 1 µM [%]	SMILES
39	CNC(=O)c1cc(F)c(-c2nc3cc(C)ccn3c2CC2CN(C(=O)OC)CCCO2)c(F)c1 (single isomer, unassigned) [A14 (Peak 1), methyl 2-((2-(2,6-difluoro-4-(methylcarbamoyl)phenyl)-7-methylimidazo[1,2-a]pyridin-3-yl)methyl)-1,4-oxazepane-4-carboxylate]
29	CNC(=O)c1cc(F)c(-c2nc3cc(C)ccn3c2CC2COCCN(C(=O)OC)C2)c(F)c1 (single isomer, unassigned) [A16 (Peak 1), methyl 6-((2-(2,6-difluoro-4-(methylcarbamoyl)phenyl)-7-meth-ylimidazo[1,2-a]pyridin-3-yl)methyl)-1,4-oxazepane-4-carboxylate]
30	CNC(=O)c1cc(F)c(-c2nc3cc(C)ccn3c2CC2CCCCN(C(=O)OC)C2)c(F)c1 (single isomer, unassigned) [A17 (Peak 1), methyl 3-((2-(2,6-difluoro-4-(methylcarbamoyl)phenyl)-7-methylimidazo[1,2-a]pyridin-3-yl)methyl)azepane-1-carboxylate]
22	CNC(=O)c1cc(F)c(-c2nc3cc(C)ccn3c2CC2CCCC(NC(C)=O)C2)c(F)c1 (single isomer, unassigned) [trans-A22 (Peak 1), 4-(3-((3-acetamidocyclohexyl)methyl)-7-methylimidazo[1,2-a]pyridin-2-yl)-3,5-difluoro-N-methylbenzamide]

Same assay, conditions: antagonist mode, αβ-meATP 3 μM

IC50 [nM]	SMILES
< 100	CNC(=O)c1cc(F)c(-c2nc3cc(C)ccn3c2CC2CN(C(=O)OC)CCCO2)c(F)c1 (single isomer, unassigned) [A14 (Peak 2), methyl 2-((2-(2,6-difluoro-4-(methylcarbamoyl)phenyl)-7-methylimidazo[1,2-a]pyridin-3-yl)methyl)-1,4-oxazepane-4-carboxylate]
< 100	CNC(=O)c1cc(F)c(-c2nc3cc(C)ccn3c2CC2CCCN(C(=O)OC)CC2)c(F)c1 (single isomer, unassigned) [A18 (Peak 1), methyl 4-((2-(2,6-difluoro-4-(methylcarbamoyl)phenyl)-7-methylimidazo[1,2-a]pyridin-3-yl)methyl)azepane-1-carboxylate]
100 to 1000	CNC(=O)c1cc(F)c(-c2nc3cc(C)ccn3c2CC2CCCN(C(=O)OC)CC2)c(F)c1 (single isomer, unassigned) [A18 (Peak 2), methyl 4-((2-(2,6-difluoro-4-(methylcarbamoyl)phenyl)-7-methylimidazo[1,2-a]pyridin-3-yl)methyl)azepane-1-carboxylate]
> 1000	CNC(=O)c1ccc(-c2nc3cc(C(O)C(F)(F)F)ccn3c2C[C@H]2CN(C(=O)OC)CCO2)c(F)c1 (single isomer, unassigned) [A46 (Peak 1)]
> 1000	CNC(=O)c1ccc(-c2nc3cc(C(O)C(F)(F)F)ccn3c2C[C@H]2CN(C(=O)OC)CCO2)c(F)c1 (single isomer, unassigned) [A46 (Peak 2)]
< 100	CNC(=O)c1cc(F)c(-c2nc3cc(C)ccn3c2CC2CCCC(NC(C)=O)C2)c(F)c1 (single isomer, unassigned) [cis-A22 (Peak 1), 4-(3-((3-acetamidocyclohexyl)methyl)-7-methylimidazo[1,2-a]pyridin-2-yl)-3,5-difluoro-N-methylbenzamide]
< 100	CNC(=O)c1cc(F)c(-c2nc3cc(C)ccn3c2CC2CCCC(NC(C)=O)C2)c(F)c1 (single isomer, unassigned) [cis-A22 (Peak 2), 4-(3-((3-acetamidocyclohexyl)methyl)-7-methylimidazo[1,2-a]pyridin-2-yl)-3,5-difluoro-N-methylbenzamide]
< 100	CNC(=O)c1cc(F)c(-c2nc3cc(C)ccn3c2C[C@H]2CCCN(C(=O)OC)C2)c(F)c1 [(R)-A19, methyl (R)-3-((2-(2,6-difluoro-4-(methylcarbamoyl)phenyl)-7-methylimidazo[1,2-a]pyridin-3-yl)methyl)piperidine-1-carboxylate]
< 100	CNC(=O)c1cc(F)c(-c2nc3cc(C)ccn3c2C[C@@H]2CCCN(C(=O)OC)C2)c(F)c1 [(S)-A19, methyl (S)-3-((2-(2,6-difluoro-4-(methylcarbamoyl)phenyl)-7-methylimidazo[1,2-a]pyridin-3-yl)methyl)piperidine-1-carboxylate]
100 to 1000	CNC(=O)c1cc(F)c(-c2nc3cc(F)ccn3c2C[C@H]2CN(C(=O)OC)CCO2)c(F)c1 [Compound A1, methyl (S)-2-((2-(2,6-difluoro-4-(methylcarbamoyl)phenyl)-7-fluoroimidazo[1,2-a]pyridin-3-yl)methyl)morpholine-4-carboxylate]
< 100	CNC(=O)c1cc(F)c(-c2nc3cc(Cl)ccn3c2C[C@H]2CN(C(=O)OC)CCO2)c(F)c1 [Compound A2, methyl (S)-2-((7-chloro-2-(2,6-difluoro-4-(methyl-carb-amoyl)-phenyl)-imidazo[1,2-a]pyridin-3-yl)methyl)morpholine-4-carboxylate]
< 100	CNC(=O)c1cc(F)c(-c2nc3cc(OC)ccn3c2C[C@H]2CN(C(=O)OC)CCO2)c(F)c1 [Compound A3, methyl (S)-2-((2-(2,6-difluoro-4-(methylcarbamoyl)phenyl)-7-methoxyimidazo[1,2-a]pyridin-3-yl)methyl)morpholine-4-carboxylate]
< 100	CNC(=O)c1cc(F)c(-c2nc3cc(C(F)F)ccn3c2C[C@H]2CN(C(=O)OC)CCO2)c(F)c1 [Compound A4, methyl (S)-2-((2-(2,6-difluoro-4-(methylcarbamoyl)phenyl)-7-(di-fluoromethyl)imidazo[1,2-a]pyridin-3-yl)methyl)morpholine-4-carboxylate]

SMILES	IC50 [nM]
CNC(=O)c1ccc(-c2nc3cc([S+](C)[O-])ccn3c2C[C@H]2CN(C(=O)OC)CCO2)c(F)c1 (single isomer, unassigned) [A47 (Peak 2)]	> 1000

— patent US12655145B2, “P2X3 modulators” (GlaxoSmithKline Intellectual Property (No. 3) Limited, priority 2020, dated 2026)
